Here are results for 2 substances from US8226943B2, “Antibodies to notch receptors” (OncoMed Pharmaceuticals, Inc., priority 2008, dated 2012).

The target of one test is T1, mNotch1 (Mus musculus, UniProt Q01705).
T1 construct: recombinant human and mouse Notch proteins (EGF10-15 for Notch1, 2, & 4; EGF9-14 for Notch3) were immobilized on a CM5 chip
T1 sequence (Q01705 372-601 limits assumed): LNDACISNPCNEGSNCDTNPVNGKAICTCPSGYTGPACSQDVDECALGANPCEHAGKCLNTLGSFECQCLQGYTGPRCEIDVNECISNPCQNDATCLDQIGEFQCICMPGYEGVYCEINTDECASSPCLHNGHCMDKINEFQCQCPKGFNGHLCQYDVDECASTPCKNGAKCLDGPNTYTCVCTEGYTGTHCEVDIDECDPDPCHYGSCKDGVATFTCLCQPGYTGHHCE
Description: Biacore affinity, mouse Notch1. The test is classed as binding. On the procedure:
The affinities for human and mouse Notch1, Notch2, Notch3, and Notch4 were determined using a Biacore 2000 instrument. Briefly, recombinant human and mouse Notch proteins (EGF10-15 for Notch1, 2, & 4; EGF9-14 for Notch3) were immobilized on a CM5 chip using standard amine based chemistry (NHS/EDC). For hNotch2, EGF1-12 was also tested for binding. Different antibody concentrations (1-100 nM) were injected over the protein surfaces and kinetic data were collected over time. The data was fit using the simultaneous global fit equation to yield dissociation constants (KD, nM) for each Notch (Table 3).
The sequences of the heavy chain and light chain are provided in SEQ ID NO: 49 and SEQ ID NO:18, respectively. The heavy chain variable region is provided in SEQ ID NO:50 and the light chain variable region is provide SEQ ID NO:13. The heavy chain CDR3 sequence of 59R5 comprises SIFYTT, SEQ ID NO:51. The other CDR sequences of 59R5 are identical to 59R1. […] Both antibodies bind human and murine Notch2 and Notch3 receptors with sub-nanomolar affinity (see Table 6).

The test system of another test is C28 colon tumor cells. Description: C28 colon tumor xenograft growth. The test is classed as in vivo, NOD-SCID mice. Conditions: for C28 Tumor vol relative to the control group / growth of C28 colon tumors: 15 mg/kg once per week; for growth of C28 colon tumors: preventative mode. The method, then:
C28 colon tumor cells (10,000 cells per mouse) were injected subcutaneously into the flank region of NOD-SCID mice. Tumors were allowed to grow for 24 days until they had reached an average volume of ˜130 mm^3. Animals were randomized into four treatment groups (n=10/group) and treatments were initiated. One group received a control antibody (1B711) at 10 mg/kg twice per week; one group received irintoecan at 7.5 mg/kg once per week plus the control antibody at 10 mg/kg twice per week; one group received 59R1 at 10 mg/kg twice per week, and the fourth group received the combination of 59R1 at 10 mg/kg twice per week and irinotecan at 7.5 mg/kg once per week. Tumor volumes were measured on the indicated days.
In another embodiment, NOD/SCID mice were injected with C28 colon tumor cells. The mice were treated with anti-Notch2/3 antibody 59R1, anti-Notch2/3 antibody 59R5 or control antibody. Antibodies were dosed at 15 mg/kg once per week in a “preventative” mode where dosing was initiated two days after cell injection.
(§1) Tumor volumes and p values for each experiment are shown relative to the control group. The PE13, C28 and Colo205 studies were carried out as described in Example 14. PN8 studies were carried out as described above. For the PN8 experiment, the control is gemcitabine alone and values for 59R1 and 59R5 are the combinations with gemcitabine. Antibodies were dosed once per week at 15 mg/kg for all experiments.

In the next test the test system is PE13 breast tumor cells. Description: PE13 breast tumor xenograft growth. The test is classed as in vivo, NOD/SCID mice. The method, then: In certain embodiments, NOD/SCID mice injected with 50,000 PE13 or T3 breast tumor cells were treated with anti-Notch2/3 antibody 59R1 or control antibody 1B7.11 two days following cell injections. Antibodies were dosed at 10 mg/kg twice week.
In a further experiment, anti-Notch2/3 antibodies were tested for an effect on breast tumor growth. NOD/SCID mice were injected with 50,000 PE13 or T3 breast tumor cells, and tumors were allowed to grow to a size of between 65 to 200 mm^3 after which mice were randomized (n=10 per experimental group), and antibodies administration begun. Animals were treated with 15 mg/kg of either control 1B7.11 antibodies or anti-Notch2/3 59R1 antibodies twice weekly. Tumor size was measured twice weekly, and tumor volume was calculated as described (see Michieli et al., 2004).
The 59R1 IgG2 antibody was also tested in vivo in the breast tumor xenograft lines OMP-B34, OMP-B39, OMP-B44, PE13, and UM-T1, the pancreas tumor xenograft line OMP-PN8, and the colon tumor xenograft line OMP-C8. These tumor xenograft lines were established by adhering to procedures described in Al-Hajj et al., 2003, Proc. Natl. Acad. Sci. USA, 100:3983-3988. Female NOD/SCID immuno-compromised mice 7-10 weeks old were used for the establishment of the breast tumor xenografts and male NOD/SCID mice were used for the OMP-Pn8 and OMP-C8 tumor-models (Harlan, Indianapolis, Ind.). The 59R1 IgG2 antibody was also tested in vivo in a Colo-205 colon tumor xenograft model. Female immunodeficient bg/nu XID mice on a Swiss CD-1 background were used for the Colo-205 xenograft tumor model. In case of the breast cancer models, slow-releasing estrogen pellets (0.36 mg) had to be implanted. Mice were subcutaneously injected on the right flank with 50,000 (OMP-B34, OMP-B39, OMP-B44, PE13, and UM-T1) or 1×10^7 (Colo-205) viable cells, respectively, in a mixture of PBS (without magnesium or calcium) and Matrigel at a 1:1 ratio. The injected total volume per mouse was 200 μl with 50% being Matrigel. Once the tumor had reached a size between 65-200 mm^3, the mice were randomized. Antibodies were administered weekly and tumors measured twice weekly. LZ1 (a human antibody that recognizes lyzozyme) or 1B711 (a murine IgG1 antibody that recognizes the hapten trinitrophenol) was used as a control antibody for treatment of each tumor type. Tumor volume was calculated as described Al-Hajj et al. (2003). Data are expressed as the mean and the mean±S.E.M. Group means were compared using Student's two-tailed, unpaired t-test. […] All statistical analysis was performed using Microsoft EXCEL and Graph Pad PRISM.
In one embodiment, NOD/SCID mice were injected with PE13 breast tumor cells. The mice were treated with anti-Notch2/3 antibody 59R1, anti-Notch2/3 antibody 59R5, or control antibody. Antibodies were dosed at 15 mg/kg once per week in a “preventative” mode where dosing was initiated two days after cell injection.
In one embodiment, to evaluate the effect of 59R5 on cancer stem cells, a tumor recurrence study was carried out in the PE13 breast tumor model. NOD/SCID mice were injected with PE13 breast tumor cells. The tumors were allowed to grow for 40 days before treatments were initiated. The mice were treated with taxol at 15 mg/kg twice per week for 5 weeks, in combination with either control antibody or anti-Notch 2/3 antibody 59R5. After 5 weeks, the taxol treatments were stopped and the antibody treatments were continued.
as §1

Where [1] appears, read: Table 6, Biacore, read-out: IgG Dissociation Constant (KD) m-Notch1.

Read-outs that look alike come from different tables or passages of the source.

What is called Kd is the equilibrium constant for the complex coming apart. As for “59R1: human IgG2 antibody binding Notch2 and Notch3; heavy and light chain SEQ ID NO:16 and 18; ATCC PTA-9547”, the dissociation constant Kd in the test with mNotch1 (Table 3, Biacore, EGF10-15, read-out: Dissociation Constant (KD) mNotch1) was over 0.01 µM; in the test with mNotch1 (setting [1]), over 0.01 µM. Besides, in the test with C28 colon tumor cells, the “C28 Tumor vol relative to the control group” value was determined as 0.29. Moreover, in the test with C28 colon tumor cells, the “growth of C28 colon tumors” value is on record as “inhibited”. For the same substance, the “C28 tumor growth, combination of 59R1 and irinotecan relative to the irinotecan group” value in the test with C28 colon tumor cells (59R1 10 mg/kg twice per week and irinotecan 7.5 mg/kg once per week) is given as “inhibited”. Also, in the test on C28 colon tumor cells (established tumors, 10 mg/kg twice per week), the “C28 tumor growth, 59R1 alone relative to the control antibody group” value was “inhibited”. Moreover, the “PE13 tumor growth compared to control” value is listed as “significantly reduced” with PE13 breast tumor cells (10 mg/kg twice week, started two days following cell injections) and “significantly reduced” in the test on PE13 breast tumor cells (established tumors, 15 mg/kg twice weekly). Also, in the test on PE13 breast tumor cells (15 mg/kg once per week), the “PE13 Tumor vol relative to the control group” value is listed as 0.25. Besides, the “PE13 breast cancer growth relative to control antibody” value in the test with PE13 breast tumor cells (established tumors, 15 mg/kg once a week) is listed as “inhibit breast cancer growth”.

For the substance “59R5: human antibody that specifically binds human Notch 2 and human Notch 3; heavy and light chain SEQ ID NO:49 and 18; ATCC PTA-10170”, in the test with mNotch1 (setting [1]), the Kd is over 0.01 µM. Further, in the test with C28 colon tumor cells, the “C28 Tumor vol relative to the control group” value turned out to be 0.38 and the “growth of C28 colon tumors” value is “inhibited”. Besides, the “PE13 Tumor vol relative to the control group” value with PE13 breast tumor cells (15 mg/kg once per week) worked out at 0.18. In the test on PE13 breast tumor cells (15 mg/kg once per week, preventative mode (dosing two days after cell injection)), the “inhibition of PE13 tumor growth” value is reported as “greater than 80%”. Also, the “PE13 tumor recurrence after high-dose taxol treatment” value in the test with PE13 breast tumor cells (taxol 15 mg/kg twice per week for 5 weeks plus antibody, then antibody only) was “significantly delay tumor recurrence”.
